# Results reported in patent US20230266302A1, “SYNTHESIS AND USE OF N-BENZYL SULFONAMIDES” (THE UNIVERSITY OF TULSA, priority 2020, published 2023).
# Test system: BxPC3 (pancreatic cancer)
# Experiment: ATP level assay (CellTiter-Glo), percent of control
# Assay type: cell-based
# Conditions: Homo sapiens, BXPC-3, 2 h; compound alone, 100 uM, two hour incubation, control DMSO; read-out: POC (percent of control) BxPC3
row,SMILES,activity at 100 µM
1,"Cc1ccc(S(=O)(=O)NCc2coc(C)n2)cc1 [Compound 21, 4-methyl-N-[(2-methyl-1,3-oxazol-4-yl)methyl]benzenesulfonamide]",112%

# Same assay, conditions: compound 100 uM + 2DG (about 10-20 mM), two hour incubation
row,SMILES,POC (percent of control) BxPC3
1,"Cc1ccc(S(=O)(=O)NCc2coc(C)n2)cc1 [Compound 21, 4-methyl-N-[(2-methyl-1,3-oxazol-4-yl)methyl]benzenesulfonamide]",106.8% of control

# Same assay, conditions: compound 100 uM + rotenone (approximately 1.25 μM), two hour incubation
row,SMILES,POC (percent of control) BxPC3
1,"Cc1ccc(S(=O)(=O)NCc2coc(C)n2)cc1 [Compound 21, 4-methyl-N-[(2-methyl-1,3-oxazol-4-yl)methyl]benzenesulfonamide]",114.8% of control

# Test system: H293 (kidney cancer)
# Experiment: as above
# Assay type: cell-based
# Conditions: 2 h; compound alone, 100 uM, two hour incubation, control DMSO; read-out: POC (percent of control) H293
row,SMILES,activity at 100 µM
1,"Cc1ccc(S(=O)(=O)NCc2coc(C)n2)cc1 [Compound 21, 4-methyl-N-[(2-methyl-1,3-oxazol-4-yl)methyl]benzenesulfonamide]",115%

# Same assay, conditions: compound 100 uM + 2DG (about 10-20 mM), two hour incubation
row,SMILES,POC (percent of control) H293
1,"Cc1ccc(S(=O)(=O)NCc2coc(C)n2)cc1 [Compound 21, 4-methyl-N-[(2-methyl-1,3-oxazol-4-yl)methyl]benzenesulfonamide]",87.8% of control

# Same assay, conditions: compound 100 uM + rotenone (approximately 1.25 μM), two hour incubation
row,SMILES,POC (percent of control) H293
1,"Cc1ccc(S(=O)(=O)NCc2coc(C)n2)cc1 [Compound 21, 4-methyl-N-[(2-methyl-1,3-oxazol-4-yl)methyl]benzenesulfonamide]",87% of control

# Test system: HDF (normal cells)
# Experiment: as above
# Assay type: cell-based
# Conditions: 2 h; compound alone, 100 uM, two hour incubation, control DMSO; read-out: POC (percent of control) HDF
row,SMILES,activity at 100 µM
1,"Cc1ccc(S(=O)(=O)NCc2coc(C)n2)cc1 [Compound 21, 4-methyl-N-[(2-methyl-1,3-oxazol-4-yl)methyl]benzenesulfonamide]",87.9%

# Same assay, conditions: compound 100 uM + 2DG (about 10-20 mM), two hour incubation
row,SMILES,POC (percent of control) HDF
1,"Cc1ccc(S(=O)(=O)NCc2coc(C)n2)cc1 [Compound 21, 4-methyl-N-[(2-methyl-1,3-oxazol-4-yl)methyl]benzenesulfonamide]",97.4% of control

# Same assay, conditions: compound 100 uM + rotenone (approximately 1.25 μM), two hour incubation
row,SMILES,POC (percent of control) HDF
1,"Cc1ccc(S(=O)(=O)NCc2coc(C)n2)cc1 [Compound 21, 4-methyl-N-[(2-methyl-1,3-oxazol-4-yl)methyl]benzenesulfonamide]",113.6% of control

# Test system: HeLa (cervical cancer)
# Experiment: as above
# Assay type: cell-based
# Conditions: Homo sapiens, HeLa, 2 h; compound alone, 100 uM, two hour incubation, control DMSO; read-out: POC (percent of control) HeLa
row,SMILES,activity at 100 µM
1,"Cc1ccc(S(=O)(=O)NCc2coc(C)n2)cc1 [Compound 21, 4-methyl-N-[(2-methyl-1,3-oxazol-4-yl)methyl]benzenesulfonamide]",101%

# Same assay, conditions: compound 100 uM + 2DG (about 10-20 mM), two hour incubation
row,SMILES,POC (percent of control) HeLa
1,"Cc1ccc(S(=O)(=O)NCc2coc(C)n2)cc1 [Compound 21, 4-methyl-N-[(2-methyl-1,3-oxazol-4-yl)methyl]benzenesulfonamide]",105.8% of control

# Same assay, conditions: compound 100 uM + rotenone (approximately 1.25 μM), two hour incubation
row,SMILES,POC (percent of control) HeLa
1,"Cc1ccc(S(=O)(=O)NCc2coc(C)n2)cc1 [Compound 21, 4-methyl-N-[(2-methyl-1,3-oxazol-4-yl)methyl]benzenesulfonamide]",109.4% of control

# Test system: MCF10A (non-cancerous breast)
# Experiment: as above
# Assay type: cell-based
# Conditions: Homo sapiens, MCF-10A, 2 h; compound alone, 100 uM, two hour incubation, control DMSO; read-out: POC (percent of control) MCF10A
row,SMILES,activity at 100 µM
1,"Cc1ccc(S(=O)(=O)NCc2coc(C)n2)cc1 [Compound 21, 4-methyl-N-[(2-methyl-1,3-oxazol-4-yl)methyl]benzenesulfonamide]",108%

# Same assay, conditions: compound 100 uM + 2DG (about 10-20 mM), two hour incubation
row,SMILES,POC (percent of control) MCF10A
1,"Cc1ccc(S(=O)(=O)NCc2coc(C)n2)cc1 [Compound 21, 4-methyl-N-[(2-methyl-1,3-oxazol-4-yl)methyl]benzenesulfonamide]",92.8% of control

# Same assay, conditions: compound 100 uM + rotenone (approximately 1.25 μM), two hour incubation
row,SMILES,POC (percent of control) MCF10A
1,"Cc1ccc(S(=O)(=O)NCc2coc(C)n2)cc1 [Compound 21, 4-methyl-N-[(2-methyl-1,3-oxazol-4-yl)methyl]benzenesulfonamide]",120% of control

# Test system: MCF7 (breast cancer)
# Experiment: as above
# Assay type: cell-based
# Conditions: Homo sapiens, MCF7, 2 h; compound alone, 100 uM, two hour incubation, control DMSO; read-out: POC (percent of control) MCF7
row,SMILES,activity at 100 µM
1,"Cc1ccc(S(=O)(=O)NCc2coc(C)n2)cc1 [Compound 21, 4-methyl-N-[(2-methyl-1,3-oxazol-4-yl)methyl]benzenesulfonamide]",189%

# Same assay, conditions: compound 100 uM + 2DG (about 10-20 mM), two hour incubation
row,SMILES,POC (percent of control) MCF7
1,"Cc1ccc(S(=O)(=O)NCc2coc(C)n2)cc1 [Compound 21, 4-methyl-N-[(2-methyl-1,3-oxazol-4-yl)methyl]benzenesulfonamide]",121.1% of control

# Same assay, conditions: compound 100 uM + rotenone (approximately 1.25 μM), two hour incubation
row,SMILES,POC (percent of control) MCF7
1,"Cc1ccc(S(=O)(=O)NCc2coc(C)n2)cc1 [Compound 21, 4-methyl-N-[(2-methyl-1,3-oxazol-4-yl)methyl]benzenesulfonamide]",111% of control

# Test system: MDA-MB (breast cancer)
# Experiment: as above
# Assay type: cell-based
# Conditions: 2 h; compound alone, 100 uM, two hour incubation, control DMSO; read-out: POC (percent of control) MDA-MB
row,SMILES,activity at 100 µM
1,"Cc1ccc(S(=O)(=O)NCc2coc(C)n2)cc1 [Compound 21, 4-methyl-N-[(2-methyl-1,3-oxazol-4-yl)methyl]benzenesulfonamide]",101%

# Same assay, conditions: compound 100 uM + 2DG (about 10-20 mM), two hour incubation
row,SMILES,POC (percent of control) MDA-MB
1,"Cc1ccc(S(=O)(=O)NCc2coc(C)n2)cc1 [Compound 21, 4-methyl-N-[(2-methyl-1,3-oxazol-4-yl)methyl]benzenesulfonamide]",100.7% of control

# Same assay, conditions: compound 100 uM + rotenone (approximately 1.25 μM), two hour incubation
row,SMILES,POC (percent of control) MDA-MB
1,"Cc1ccc(S(=O)(=O)NCc2coc(C)n2)cc1 [Compound 21, 4-methyl-N-[(2-methyl-1,3-oxazol-4-yl)methyl]benzenesulfonamide]",121.5% of control

# Test system: NCI-H196 (lung cancer)
# Experiment: as above
# Assay type: cell-based
# Conditions: NCI-H196, 2 h; compound alone, 100 uM, two hour incubation, control DMSO; read-out: POC (percent of control) NCI-H196
row,SMILES,activity at 100 µM
1,"Cc1ccc(S(=O)(=O)NCc2coc(C)n2)cc1 [Compound 21, 4-methyl-N-[(2-methyl-1,3-oxazol-4-yl)methyl]benzenesulfonamide]",108%

# Same assay, conditions: compound 100 uM + 2DG (about 10-20 mM), two hour incubation
row,SMILES,POC (percent of control) NCI-H196
1,"Cc1ccc(S(=O)(=O)NCc2coc(C)n2)cc1 [Compound 21, 4-methyl-N-[(2-methyl-1,3-oxazol-4-yl)methyl]benzenesulfonamide]",107.4% of control

# Same assay, conditions: compound 100 uM + rotenone (approximately 1.25 μM), two hour incubation
row,SMILES,POC (percent of control) NCI-H196
1,"Cc1ccc(S(=O)(=O)NCc2coc(C)n2)cc1 [Compound 21, 4-methyl-N-[(2-methyl-1,3-oxazol-4-yl)methyl]benzenesulfonamide]",130.5% of control

# Test system: PC3 (prostate cancer)
# Experiment: as above
# Assay type: cell-based
# Conditions: 2 h; compound alone, 100 uM, two hour incubation, control DMSO; read-out: POC (percent of control) PC3
row,SMILES,activity at 100 µM
1,"Cc1ccc(S(=O)(=O)NCc2coc(C)n2)cc1 [Compound 21, 4-methyl-N-[(2-methyl-1,3-oxazol-4-yl)methyl]benzenesulfonamide]",93.3%

# Same assay, conditions: compound 100 uM + 2DG (about 10-20 mM), two hour incubation
row,SMILES,POC (percent of control) PC3
1,"Cc1ccc(S(=O)(=O)NCc2coc(C)n2)cc1 [Compound 21, 4-methyl-N-[(2-methyl-1,3-oxazol-4-yl)methyl]benzenesulfonamide]",131.7% of control

# Same assay, conditions: compound 100 uM + rotenone (approximately 1.25 μM), two hour incubation
row,SMILES,POC (percent of control) PC3
1,"Cc1ccc(S(=O)(=O)NCc2coc(C)n2)cc1 [Compound 21, 4-methyl-N-[(2-methyl-1,3-oxazol-4-yl)methyl]benzenesulfonamide]",110.9% of control

# Test system: SkBr3 (breast cancer)
# Experiment: as above
# Assay type: cell-based
# Conditions: Homo sapiens, SK-BR-3, 2 h; compound alone, 100 uM, two hour incubation, control DMSO; read-out: POC (percent of control) SkBr3
row,SMILES,activity at 100 µM
1,"Cc1ccc(S(=O)(=O)NCc2coc(C)n2)cc1 [Compound 21, 4-methyl-N-[(2-methyl-1,3-oxazol-4-yl)methyl]benzenesulfonamide]",102%

# Same assay, conditions: compound 100 uM + 2DG (about 10-20 mM), two hour incubation
row,SMILES,POC (percent of control) SkBr3
1,"Cc1ccc(S(=O)(=O)NCc2coc(C)n2)cc1 [Compound 21, 4-methyl-N-[(2-methyl-1,3-oxazol-4-yl)methyl]benzenesulfonamide]",108.5% of control

# Same assay, conditions: compound 100 uM + rotenone (approximately 1.25 μM), two hour incubation
row,SMILES,POC (percent of control) SkBr3
1,"Cc1ccc(S(=O)(=O)NCc2coc(C)n2)cc1 [Compound 21, 4-methyl-N-[(2-methyl-1,3-oxazol-4-yl)methyl]benzenesulfonamide]",106.9% of control

# Test system: T47D (breast cancer)
# Experiment: as above
# Assay type: cell-based
# Conditions: Homo sapiens, T47D, 2 h; compound alone, 100 uM, two hour incubation, control DMSO; read-out: POC (percent of control) T47D
row,SMILES,activity at 100 µM
1,"Cc1ccc(S(=O)(=O)NCc2coc(C)n2)cc1 [Compound 21, 4-methyl-N-[(2-methyl-1,3-oxazol-4-yl)methyl]benzenesulfonamide]",88.7%

# Same assay, conditions: compound 100 uM + 2DG (about 10-20 mM), two hour incubation
row,SMILES,POC (percent of control) T47D
1,"Cc1ccc(S(=O)(=O)NCc2coc(C)n2)cc1 [Compound 21, 4-methyl-N-[(2-methyl-1,3-oxazol-4-yl)methyl]benzenesulfonamide]",99.4% of control

# Same assay, conditions: compound 100 uM + rotenone (approximately 1.25 μM), two hour incubation
row,SMILES,POC (percent of control) T47D
1,"Cc1ccc(S(=O)(=O)NCc2coc(C)n2)cc1 [Compound 21, 4-methyl-N-[(2-methyl-1,3-oxazol-4-yl)methyl]benzenesulfonamide]",86.4% of control
